Each structure is given as a SMILES string.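 Five compound concentrations were applied to cells in 96-well plates for 48 hours; endpoints were derived by simple linear interpolation of the resulting dose-response curve. At the TGI there is no net growth.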 Where a SMILES comes first, the peptide text is derived from it. [ ]: non-standard residue; d: D form. The star is where a group is joined. NMeV = CN[C@H](C(=O)O)C(C)C; X29 = COc1ccc(CN*)c(OC)c1; Octanoyl = CCCCCCCC(=O)*; dNMeA = CN[C@H](C)C(=O)O Where only a bound is given, the exact number is not on record here.

Test systems include HCT-15 colon; UACC-62 melanoma; M14 melanoma; SK-MEL-5 melanoma; UO-31 renal; SF-268 CNS; HOP-62 NSCLC; HOP-92 NSCLC; KM12 colon; UACC-257 melanoma; SNB-75 CNS; NCI/ADR-RES ovarian; COLO 205 colon; MDA-MB-435; MALME-3M melanoma.
Experiment in all cases: NCI anticancer screen, dose series, 48 h

In the case of `COc1c(Br)cc2c(c1OC)C(Br)CCC(Br)(Br)C2=O` (stereo not given), the TGI in the experiment on HCT-15 colon amounted to 1.63 µM; with UACC-62 melanoma, 13.1 µM; in the experiment on M14 melanoma, 0.539 µM; in the experiment with SK-MEL-5 melanoma it was 6.26 µM; with UO-31 renal it was 2.89 µM; in the experiment with SF-268 CNS it was 4.37 µM. Further, the TGI in the experiment with HOP-62 NSCLC is 4.81 µM; in the experiment on HOP-92 NSCLC, 12.5 µM; with KM12 colon it was 14.6 µM; in the experiment with UACC-257 melanoma, 14.7 µM; in the experiment on SNB-75 CNS, 22.2 µM; with NCI/ADR-RES ovarian, 2.77 µM. Also, the results for the TGI in the experiment on COLO 205 colon, in the experiment on MDA-MB-435 and in the experiment on MALME-3M melanoma were 4.1 µM, 3.62 µM and 10.8 µM, respectively.
As for `CCC1(c2ccccc2)C(=O)N=C(c2ccccc2)N1CCc1ccccc1` (stereo not given), the TGI in the experiment with HCT-15 colon, with UACC-62 melanoma, with M14 melanoma, with SK-MEL-5 melanoma, in the experiment with UO-31 renal and in the experiment on SF-268 CNS was over 100 µM each time. In addition, the TGI in the experiment on HOP-62 NSCLC, in the experiment with HOP-92 NSCLC, in the experiment with KM12 colon, with UACC-257 melanoma, in the experiment on SNB-75 CNS and with NCI/ADR-RES ovarian was over 100 µM in each case. The TGI in the experiment with COLO 205 colon, in the experiment with MDA-MB-435 and in the experiment on MALME-3M melanoma was over 100 µM each time.
`Cc1ccccc1-n1c(=O)c2ncn(C3CCCO3)c2n(-c2ccccc2C)c1=S` (stereo not given): the TGI with HCT-15 colon, in the experiment with UACC-62 melanoma, with M14 melanoma, in the experiment on SK-MEL-5 melanoma, in the experiment on UO-31 renal and in the experiment with SF-268 CNS was over 100 µM each time. Moreover, the TGI in the experiment with HOP-62 NSCLC, in the experiment with HOP-92 NSCLC, with KM12 colon, in the experiment on UACC-257 melanoma, in the experiment with SNB-75 CNS and in the experiment on NCI/ADR-RES ovarian was over 100 µM in each case. Moreover, the TGI in the experiment with COLO 205 colon, with MDA-MB-435 and in the experiment with MALME-3M melanoma was over 100 µM throughout.
On to `CC(C)(C)c1cc2c(OC/C=C/c3ccccc3)c(c1)Cc1cc(C(C#N)(OC/C=C/c3ccccc3)OC/C=C/c3ccccc3)cc(c1OC/C=C\c1ccccc1)Cc1cc(C(C)(C)C)cc(c1OC/C=C/c1ccccc1)Cc1cc(C(C#N)(OC/C=C\c3ccccc3)OC/C=C/c3ccccc3)cc(c1OC/C=C\c1ccccc1)C2` (stereo not given), for which the TGI with HCT-15 colon, in the experiment on UACC-62 melanoma, with M14 melanoma, in the experiment on SK-MEL-5 melanoma, in the experiment with UO-31 renal and in the experiment on SF-268 CNS was over 100 µM throughout. The TGI in the experiment with HOP-62 NSCLC, in the experiment with HOP-92 NSCLC, in the experiment with KM12 colon, in the experiment on UACC-257 melanoma, in the experiment with SNB-75 CNS and in the experiment with NCI/ADR-RES ovarian was over 100 µM throughout. Besides, the TGI in the experiment on COLO 205 colon, with MDA-MB-435 and in the experiment with MALME-3M melanoma was over 100 µM each time.
For `C[n+]1ccc(/C2=C3\C=CC(=N3)/C(c3cc[n+](C)cc3)=c3/cc/c([nH]3)=C(\c3cc[n+](C)cc3)C3=N/C(=C(/c4cc[n+](C)cc4)C4C=CC2N4)C=C3)cc1`, the TGI in the experiment on HCT-15 colon, with UACC-62 melanoma, with M14 melanoma, with SK-MEL-5 melanoma, with UO-31 renal and in the experiment on SF-268 CNS was over 100 µM in each case. Moreover, the TGI in the experiment with HOP-62 NSCLC, with HOP-92 NSCLC, in the experiment on KM12 colon, with UACC-257 melanoma, with SNB-75 CNS and in the experiment with NCI/ADR-RES ovarian was over 100 µM each time. Also, the TGI with COLO 205 colon, in the experiment on MDA-MB-435 and in the experiment with MALME-3M melanoma was over 100 µM each time.
As for `CCOC(=O)C1C(c2ccc3c(c2)OCO3)c2c([nH][nH]c2=O)CC1(C)O` (stereo not given), the TGI in the experiment on HCT-15 colon, with UACC-62 melanoma, with M14 melanoma, in the experiment on SK-MEL-5 melanoma, in the experiment on UO-31 renal and in the experiment on SF-268 CNS was over 100 µM in each case. The TGI in the experiment on HOP-62 NSCLC, in the experiment on HOP-92 NSCLC, in the experiment with KM12 colon, with UACC-257 melanoma, with SNB-75 CNS and with NCI/ADR-RES ovarian was over 100 µM in each case. Further, the TGI in the experiment with COLO 205 colon, with MDA-MB-435 and in the experiment on MALME-3M melanoma was over 100 µM each time.
For `COc1ccc(C(=O)/C=C/c2ccc(O)c(O)c2)c(OC)c1`, the TGI with HCT-15 colon was 24.3 µM; with UACC-62 melanoma, 14.4 µM; with M14 melanoma it was 19 µM; in the experiment on SK-MEL-5 melanoma, 13.3 µM; in the experiment with UO-31 renal, 41.6 µM; in the experiment with SF-268 CNS, over 52.6 µM. In addition, the TGI in the experiment on HOP-62 NSCLC was 60.3 µM; in the experiment with HOP-92 NSCLC, over 100 µM; with KM12 colon it was 15 µM; with UACC-257 melanoma it was 15.3 µM; with SNB-75 CNS, 29.5 µM; in the experiment on NCI/ADR-RES ovarian, over 61.2 µM. The TGI in the experiment on COLO 205 colon is 28.8 µM; with MDA-MB-435, over 48.5 µM; with MALME-3M melanoma, 21.8 µM.
`CC1(/C=C/CCSc2ccccc2)CC(=O)C2CC1C2(C)C` (stereo not given): the TGI in the experiment with HCT-15 colon was over 96 µM; with UACC-62 melanoma it was over 60 µM; in the experiment on M14 melanoma, over 100 µM; in the experiment on SK-MEL-5 melanoma, 23 µM; with UO-31 renal, 43.5 µM; in the experiment on SF-268 CNS, over 100 µM. The TGI in the experiment with HOP-62 NSCLC was over 100 µM; in the experiment on HOP-92 NSCLC, over 75.4 µM; in the experiment with KM12 colon, 54.4 µM; in the experiment on UACC-257 melanoma, over 73.6 µM; in the experiment on SNB-75 CNS, over 100 µM; in the experiment with NCI/ADR-RES ovarian, over 61.8 µM. In addition, the TGI with COLO 205 colon was 70.6 µM; in the experiment with MDA-MB-435, over 87.6 µM; in the experiment with MALME-3M melanoma it was over 69.7 µM.
Consider `COC(=O)[C@H](CCSC)NC(=O)N[C@H](C)c1ccccc1`, for which the TGI in the experiment with HCT-15 colon, in the experiment with UACC-62 melanoma, in the experiment on M14 melanoma, with SK-MEL-5 melanoma, with UO-31 renal and in the experiment on SF-268 CNS was over 100 µM each time. In addition, the TGI in the experiment with HOP-62 NSCLC, in the experiment with HOP-92 NSCLC, with KM12 colon, with UACC-257 melanoma, in the experiment on SNB-75 CNS and in the experiment with NCI/ADR-RES ovarian was over 100 µM in each case. In addition, the TGI in the experiment with COLO 205 colon, in the experiment on MDA-MB-435 and in the experiment with MALME-3M melanoma was over 100 µM in each case.
Regarding `O=C1C=CC2(C=C1)O[C@H](Cc1ccccc1)[C@@H](Cc1ccccc1)O2`, the TGI turned out to be 0.866 µM with HCT-15 colon; 4.05 µM in the experiment on UACC-62 melanoma; 2.15 µM in the experiment with M14 melanoma; 1.76 µM in the experiment on SK-MEL-5 melanoma; 0.69 µM with UO-31 renal; 2.48 µM in the experiment with SF-268 CNS. Besides, the TGI in the experiment on HOP-62 NSCLC was determined as 3.63 µM; with HOP-92 NSCLC, 2.71 µM; with KM12 colon, 4.51 µM; in the experiment with UACC-257 melanoma it was 4.51 µM; with SNB-75 CNS, 7.23 µM; in the experiment on NCI/ADR-RES ovarian, 1.11 µM. Further, the results for the TGI with COLO 205 colon, in the experiment on MDA-MB-435 and in the experiment with MALME-3M melanoma were 2.99 µM, 3.56 µM and 4.77 µM, respectively.
In the case of `CCN1C(=O)c2cc(OC)c(OC)cc2C(=O)C12OC(=O)c1cc3c(cc12)OCO3` (stereo not given), the TGI with HCT-15 colon, with UACC-62 melanoma, in the experiment with M14 melanoma, in the experiment with SK-MEL-5 melanoma, with UO-31 renal and in the experiment with SF-268 CNS was over 100 µM throughout. In addition, the TGI in the experiment with HOP-62 NSCLC was over 100 µM; in the experiment with HOP-92 NSCLC it was over 100 µM; in the experiment on KM12 colon, over 100 µM; in the experiment with UACC-257 melanoma, over 100 µM; with SNB-75 CNS it was 48.5 µM; in the experiment with NCI/ADR-RES ovarian it was over 100 µM. For the same compound, the TGI in the experiment on COLO 205 colon, in the experiment on MDA-MB-435 and with MALME-3M melanoma was over 100 µM throughout.
As for `O=C(CCCN1CCC2(CC1)CC(c1ccccc1)OC2=O)c1ccc(F)cc1` (stereo not given), the TGI was over 100 µM in the experiment on HCT-15 colon; 61.9 µM in the experiment on UACC-62 melanoma; 30.9 µM in the experiment on M14 melanoma; 36.1 µM with SK-MEL-5 melanoma; over 100 µM in the experiment on UO-31 renal; over 100 µM in the experiment with SF-268 CNS. The TGI with HOP-62 NSCLC is 73.7 µM; with HOP-92 NSCLC, 76.9 µM; in the experiment on KM12 colon, 97.1 µM; with UACC-257 melanoma it was 52.1 µM; with SNB-75 CNS it was 54.2 µM; in the experiment on NCI/ADR-RES ovarian, over 100 µM. Also, the results for the TGI in the experiment on COLO 205 colon, with MDA-MB-435 and in the experiment with MALME-3M melanoma were 35.4 µM, over 100 µM and 44 µM, respectively.
As for `CCCCCCCC(=O)N[C@H](C(=O)N[C@H](C(=O)N(C)[C@H](C(=O)N1CCC[C@H]1C(=O)N(C)[C@H](C)C(=O)NCc1ccc(OC)cc1OC)C(C)C)C(C)C)C(C)C` (Octanoyl-VV[NMeV]P[dNMeA]-X29), the TGI is over 100 µM with HCT-15 colon; 23.7 µM in the experiment with UACC-62 melanoma; over 68.1 µM with M14 melanoma; 13 µM in the experiment on SK-MEL-5 melanoma; over 100 µM in the experiment with UO-31 renal; over 100 µM in the experiment on SF-268 CNS. In addition, the TGI in the experiment on HOP-62 NSCLC was over 100 µM; with HOP-92 NSCLC it was 36.7 µM; with KM12 colon it was over 100 µM; in the experiment with UACC-257 melanoma it was 60.7 µM; in the experiment on SNB-75 CNS it was over 100 µM; in the experiment with NCI/ADR-RES ovarian, over 100 µM. The TGI is 22.7 µM in the experiment with COLO 205 colon, 28.9 µM in the experiment on MDA-MB-435 and 24.3 µM in the experiment on MALME-3M melanoma.
